{
  "source": "patent US20220071891A1",
  "about": "“Extract of Chlamydomonas Acidophila, Method for Preparing Same and Cosmetic Compositions and Dermatological Compositions Comprising Same” (Laboratoires Expanscience, priority 2018, published 2022)",
  "key": {"[1]": {"tested_on": "epidermal keratinocytes subjected to Th2 stress", "test": "qRT-PCR gene expression in keratinocytes subjected to Th2 stress", "type": "cell-based, human", "details": "10 μM, 24 h preincubation, Th2 cytokine cocktail 24 h; control = 100", "description": "(§1) The potential anti-allergic effects of the Chlamydomonas acidophila extract were investigated on: • Gene expression of pro-inflammatory chemokines in normal human epidermal keratinocytes (NHEK) stimulated by a mixture of Th2 cytokines (IL-4+IL-13+IL-22+TNF-α) mimicking a late-phase “atopic dermatitis” type phenotype (chronic inflammation). • Activation of human basophils induced by fMLP. This activation was measured using a specific kit and flow cytometry analysis by quantifying a specific marker of activated basophil cells (CD63) in the total population of basophils identified by expression of the CCR3 marker. In parallel, activation with the anti-FCεRI antibody was performed as a positive control.\nNormal human epidermal keratinocytes were preincubated for 24 hours in the presence of the CAP extract at 0.01% dry matter (DM) or reference JAK inhibitor I at 10 μM. After preincubation, the cells were retreated with the CAP extract or reference and then the cells were stimulated with a Th2 cytokine cocktail (IL4+1L13+1L22+TNFα at 10 ng/ml) for 24 hours.\nAt the end of incubation, gene expression of markers of interest was assessed by qRT-PCR."}, "[2]": {"tested_on": "keratinocytes treated with hydrogen peroxide (H2O2)", "test": "ROS production (DCFH-DA) in keratinocytes treated with H2O2", "type": "cell-based, human", "details": "24 h preincubation, 100 μM H2O2 20 minutes", "source_text": "The evaluation of the antioxidant effect of the active agent is done through the incorporation of DCFH-DA (2′,7′-dichlorofluorescin diacetate) into cultured keratinocytes. This molecule is a non-fluorescent marker in the non-oxidized state. Under oxidizing conditions (here H2O2 stress), DCFH-DA will be degraded to DCF, a molecule that will emit fluorescence. The fluorescence measured will be proportional to the amount of reactive oxygen species produced by the cell in the presence of H2O2 and/or the extract. Normal human epidermal keratinocytes were preincubated for 24 hours in the presence of the CAP extract at 0.0001% dry matter, quercetin at 10 μM or vitamin C at 500 μM (the latter two molecules serving as antioxidant reference). The cells are then treated for 1 h in the presence of 0.5 mM DCFH-DA. Oxidation is induced by adding 100 μM H2O2 for 20 minutes. A second treatment with the tested products is performed simultaneously with H2O2 stress (at the same concentrations as the pretreatment). Finally, a measurement of the fluorescence density (DFU) corresponding to the amount of ROS is performed using a microplate reader. The significance of the results was checked by a one-way ANOVA followed by a Tuckey test (GraphPad Prism software version 5.02, GraphPad Software, San Diego Calif. USA)."}, "human basophils": {"tested_on": "human basophils", "test": "Basophil activation test (Flow CAST), fMLP-stimulated", "type": "cell-based", "details": "whole blood, 1 μM fMLP", "description": "as §1\nThe basophil activation test (BAT) was performed using the Flow CAST® kit (BUHLMANN, item code FKCCR).\nWhole blood was preincubated for 15 minutes in the presence of the CAP extract at 0.033% and 0.1% dry matter (DM) or the references (SB202190 at 30 μM; or cromoglycate at 10 mM).\nThe stimulant, 1 μM fMLP, was then added and the blood was incubated for an additional 15 minutes in the presence of the labeling buffer containing a mixture of monoclonal antibodies (anti-CD63-FITC and anti-CCR3-PE).\nFlow cytometry analysis was then performed to count the total population of basophils (CCR3+) and activated basophils (CCR3+/CD63+)."}, "[3]": {"tested_on": "normal human keratinocytes stimulated with PMA", "test": "TNF-alpha assay in keratinocytes stimulated with PMA", "type": "cell-based", "details": "0.1 μM, 24 h pretreatment; for TNF-alpha, change vs PMA: then 10 μg/ml PMA; for TNF-alpha, mean: then 10 μg/ml PMA overnight", "description": "(§2) The anti-inflammatory activity of the Chlamydomonas acidophila extract according to the invention was evaluated on a model of inflammation induced on keratinocytes by PMA (phorbol 12-myristate 13-acetate) treatment. The release of the cytokines TNFα and prostaglandin E2 (PGE2) was analyzed.\n(§3) Normal human epidermal keratinocytes were pretreated for 24 h with the Chlamydomonas acidophila (CAP) extract according to Example 1, at concentrations comprised between 0.0001% and 0.05% dry matter, or with the anti-inflammatory reference molecules dexamethasone at 0.1 μM or indomethacin at 0.1 μM (the latter two references serving as anti-inflammatory references for cytokines and prostaglandins, respectively).\n(§4) Inflammation was then induced by addition of PMA at 10 μg/mL overnight.\n(§5) A TNFα and PGE2 assay was then performed in the cell culture supernatants.\n(§6) The significance of the results was checked by a one-way ANOVA followed by a Tuckey test (GraphPad Prism software version 5.02, GraphPad Software, San Diego Calif. USA)."}, "[4]": {"tested_on": "normal human keratinocytes stimulated with PMA", "test": "PGE2 assay in keratinocytes stimulated with PMA", "type": "cell-based", "details": "0.1 μM, 24 h pretreatment; for PGE2, change vs PMA: then 10 μg/ml PMA; for PGE2, mean: then 10 μg/ml PMA overnight", "description": "as §2, §3, §4, §5, §6"}, "[5]": {"tested_on": "NiSO4-stimulated normal human keratinocytes", "test": "IL8 assay in NiSO4-stimulated keratinocytes", "type": "cell-based", "details": "1 μM, 24 h pretreatment, then 10 μM NiSO4 24 h", "description": "Normal human epidermal keratinocytes were pretreated for 24 hours with CAP extract at 0.01% and 0.05% dry matter or with the anti-inflammatory reference molecule dexamethasone at 1 μM. The keratinocytes were then treated for 24 hours with nickel: NiSO4 at 10 μM. At the end of the incubation, the amount of IL8 produced by the cells was assessed by ELISA in the supernatants.\nThe concentration of IL8 assayed was normalized to the amount of total intracellular protein assessed by BC Assay.\nSignificance of results was statistically analyzed by a Student's t-test."}, "[6]": {"tested_on": "cadmium-stimulated normal human keratinocytes", "test": "PGE2 assay in cadmium-stimulated keratinocytes", "type": "cell-based", "details": "0.1 μM, 24 h pretreatment, then 100 μM CdCl2 48 h", "description": "Normal human epidermal keratinocytes were pretreated for 24 hours with the CAP extract at 0.001% and 0.01% dry matter or with the anti-inflammatory reference molecule indomethacin at […]. The keratinocytes were then treated for 48 hours with cadmium: CdCl2 at 100 μM. At the end of the incubation, the amount of PGE2 produced by the cells was assessed by ELISA in the supernatants. The concentration of PGE2 assayed was normalized to the amount of total intracellular protein assessed by BC Assay."}},
  "data": [
    {"smiles": "CC(C)(C)c1nc2c3cc[nH]c(=O)c3c3cc(F)ccc3c2[nH]1", "note": "[JAK inhibitor]", "values": [
      {"measurement": "CCL5 Relative expression (%)", "setting": "[1]", "value": 101, "unit": "%"},
      {"measurement": "CCL27 Relative expression (%)", "setting": "[1]", "value": 1436, "unit": "%"}
    ]},
    {"smiles": "O=c1c(O)c(-c2ccc(O)c(O)c2)oc2cc(O)cc(O)c12", "note": "[Quercetin, quercetin]", "values": [
      {"measurement": "ROS, change vs H2O2", "setting": "[2]; 10 μM", "value": "−92", "unit": "% vs H2O2"},
      {"measurement": "ROS, mean", "setting": "[2]; 10 μM", "value": 7787.00, "unit": "fluorescence units"}
    ]},
    {"smiles": "Oc1ccc(-c2nc(-c3ccncc3)c(-c3ccc(F)cc3)[nH]2)cc1", "note": "[SB202190]", "values": [
      {"measurement": "% of activated basophils (CCR3+/CD63+), mean", "setting": "human basophils; 30 μM", "value": 30.4, "unit": "%"}
    ]},
    {"smiles": "O=C1O[C@H]([C@@H](O)CO)C(O)=C1O", "note": "[Vitamin C, vitamin C]", "values": [
      {"measurement": "ROS, change vs H2O2", "setting": "[2]; 500 μM", "value": "−89", "unit": "% vs H2O2"},
      {"measurement": "ROS, mean", "setting": "[2]; 500 μM", "value": 10932.50, "unit": "fluorescence units"}
    ]},
    {"smiles": "O=C(O)c1cc(=O)c2c(OCC(O)COc3cccc4oc(C(=O)O)cc(=O)c34)cccc2o1", "note": "[cromoglycate]", "values": [
      {"measurement": "% of activated basophils (CCR3+/CD63+), mean", "setting": "human basophils; 10 μM (table; text 10 mM)", "value": 22.3, "unit": "%"}
    ]},
    {"smiles": "C[C@@H]1C[C@H]2[C@@H]3CCC4=CC(=O)C=C[C@]4(C)[C@@]3(F)[C@@H](O)C[C@]2(C)[C@@]1(O)C(=O)CO", "note": "[dexamethasone]", "values": [
      {"measurement": "TNF-alpha, change vs PMA", "setting": "[3]", "value": "−56", "unit": "% vs PMA"},
      {"measurement": "TNF-alpha, mean", "setting": "[3]", "value": 126.112, "unit": "pg/mL"},
      {"measurement": "PGE2, change vs PMA", "setting": "[4]", "value": "−22", "unit": "% vs PMA"},
      {"measurement": "PGE2, mean", "setting": "[4]", "value": 985.126, "unit": "pg/mL"},
      {"measurement": "IL8, change vs Ni", "setting": "[5]", "value": "−63", "unit": "% vs Ni"},
      {"measurement": "IL8, mean", "setting": "[5]", "value": 1685, "unit": "pg/ml/mg protein"}
    ]},
    {"smiles": "COc1ccc2c(c1)c(CC(=O)O)c(C)n2C(=O)c1ccc(Cl)cc1", "note": "[indomethacin]", "values": [
      {"measurement": "TNF-alpha, change vs PMA", "setting": "[3]", "value": "−60", "unit": "%"},
      {"measurement": "TNF-alpha, mean", "setting": "[3]", "value": 113.266, "unit": "pg/mL"},
      {"measurement": "PGE2, change vs PMA", "setting": "[4]", "value": "−87", "unit": "% vs PMA"},
      {"measurement": "PGE2, mean", "setting": "[4]", "value": 163.031, "unit": "pg/mL"},
      {"measurement": "PGE2, change vs Cd", "setting": "[6]", "value": "−54", "unit": "% vs Cd"},
      {"measurement": "PGE2, mean", "setting": "[6]", "value": "3.874 pg/μg of protein"}
    ]}
  ]
}
